# Key:
# [1] = system: HepG2/C3A cells; assay type: cell-based
# Description: FIGS. 11A-E—FIG. 11A—System schematic. FIG. 11B—Oxygen-quenched decay causes phase shift between the intensity-modulated excitation and emission light. Two-superimposed frequencies were used to screen out background interference. FIG. 11C—Fluorescence image of HepG2/C3A cells and sensor particles after immobilization in a collagen matrix.
# Real-time focus independent measurement of oxygen uptake in microfluidic bioreactor: Oxygen uptake is a critical measurement of mitochondrial function and metabolic activity^35, 36. However, electrochemical electrodes require frequent re-calibration, while optical sensors are affected by small changes in focus, cell migration and stage movement, making them unreliable for real time measurements of oxygen uptake. Therefore, the present inventor designed an optical system in which organoids are embedded with nanoprobes containing RuP dye and excited at 532 nm (FIGS. 11A-E). Oxygen is a quencher of RuP phosphorescence, leading to a decrease in decay time. Importantly, decay time is not sensitive to changes in probe concentration or excitation intensity (i.e. cell migration, mechanical movement). To measure in real-time, the present inventor used a novel two-frequency sinusoidal intensity-modulated light, allowing us to filter background interference while measuring phase shift in the emitted light.
# [2] = system: HeLa cells; test: Acetaminophen loss of mitochondrial respiration repeated in HeLa cells; assay type: cell-based
# [3] = system: liver; details: Table 4 compound list, toxicological end-point; cited from earlier work
# [4] = system: E6/E7low 422 hepatocytes; test: Circadian gene expression (RNA sequencing, JTK_CYCLE) after dexamethasone entrainment, line 422; assay type: cell-based, human; details: 100 μM (day medium), 24±4 hours period, adjusted p-values less than 0.005
# Protocol: (§1) E6/E7^low Upcyte™ hepatocytes line 422, from a donor, and line 653, from an old donor, were seeded in OSM-free differentiation media as previously described (Levy et al. Nature Biotechnology 2015). Following 5 days of differentiation, cells were synchronized in corticosteroid-free culture medium for 24 hours, followed by high 100 μM Dexamethasone dose (day medium), entraining a circadian cycle. Triplicate cell-lysate and media samples were collected every 4 hours in the following 2 days. RNA was extracted from lysate samples, using NucleoSpin® RNA (Qiagen, Valencia, Calif.) according to manufacturer's direction. RNA were further reverse-transcribed to increase stability of the molecules and tagmented with in-house produced primers containing unique-per-molecule tags along with unique-per-sample tag, using an in-house developed TN5 enzyme. […] Library construction was conducted using Illumina TruSeq RNA Library Prep V2 Kit (Illumina, San Diego, Calif.) according to manufacturer's protocol and sequenced on Illumina NextSeq500 with single-end, 86 bp reads using the High Output V2 Kit. Sequencing reads were filtered to unique reads only and mapped to the UCSC human transcriptome (genome build hg38) using Bowtie 2. Expression levels of all genes were quantified using bedtools. […]
# [5] = system: E6/E7low 653 hepatocytes; test: Circadian gene expression (RNA sequencing, JTK_CYCLE) after dexamethasone entrainment, line 653; assay type: cell-based, human; details: 100 μM (day medium), 24±4 hours period, adjusted p-values less than 0.005
# Protocol: as §1
# [6] = system: E6/E7 hepatocytes; test: Conditional proliferation and EMT of E6/E7 human hepatocytes
# [7] = system: human hepatocytes; test: Lipid accumulation in human hepatocytes; assay type: cell-based
# Protocol: The present inventor uses IR-spectroscopy to track this metabolic signature in real time. Wild type and CRY1/2 knockout hepatocytes are perfused with (1) all hormones and factors (FIGS. 17A-B), or with time-average concentrations of (2) melatonin, (3) cortisol, (4) T3, (5) growth hormone, and (6) average temperature. Signature is analysed by IR-spectroscopy every 30 min for 24 hours. IR-spectra is critically compared to intracellular metabolites quantified by LC-MS/MS, as well as specific quantification of triglycerides and bile acids using commercially available kits (FIGS. 16A-F). […] Mechanism is evaluated by systematically perturbing regulators whose activity changed prior to steatosis.
molecule,measurement,setting,value
CC(=O)Nc1ccc(O)cc1 [Acetaminophen],effect on oxygen uptake over time,[1],"immediate, reversible, dose-dependent loss of oxygen uptake followed by a slow, irreversible, dose-independent death"
same,time at which immediate dose-dependent loss of oxygen uptake concludes,[1]; human,60 min
same,time to total cell death (slow dose-independent loss of oxygen uptake),[1]; human,3 to 5 days
same,transient loss of mitochondrial respiration in cells that lack CYP2E1 and 3A4,[2],repeated in HeLa cells
same,Toxicity,[3],Apoptosis
CC(=O)Oc1ccccc1C(=O)O [Aspirin],Toxicity,[3],Steatosis
CN(C)CCCN1c2ccccc2Sc2ccc(Cl)cc21 [Chlorpromazine],Toxicity,[3],Cholestasis
"C[C@@H]1C[C@H]2[C@@H]3CCC4=CC(=O)C=C[C@]4(C)[C@@]3(F)[C@@H](O)C[C@]2(C)[C@@]1(O)C(=O)CO [Dexamethasone, 9α-fluoro-11β,17α,21-trihydroxy-16α-methylpregna-1,4-diene-3,20-dione]",genes with circadian expression pattern,[4],267 genes
same,genes with circadian expression pattern,[5],41 genes
Cc1c(C)c2c(c(C)c1O)CCC(C)(COc1ccc(CC3SC(=O)NC3=O)cc1)O2 (centres unmarked) [Troglitazone],Toxicity,[3],Cholestasis
N#CC(=C(/N)Sc1ccccc1N)/C(C#N)=C(\N)Sc1ccccc1N [U0126],Epithelial-to-mesenchymal transition (EMT),[6],blocked
same,epithelial morphology and cell polarization,[6],stabilizing epithelial morphology and cell polarization
"COc1ccc2[nH]cc(CCNC(C)=O)c2c1 [melatonin, Melatonin]",lipid accumulation,[7],induce lipid accumulation
"Oncostatin m (protein, UniProt P13725 26-221, looked up) Oncostatin-M: AAIGSCSKEYRVLLGQLQKQTDLMQDTSRLLDPYIRIQGLDVPKLREHCRERPGAFPSEETLRGLGRRGFLQTLNATLGCVLHRLADLEQRLPKAQDLERSGLNIEDLEKLQMARPNILGLRNNIYCMAQLLDNSDTAEPTKAGRGASQPPTPTPASDAFQRKLEGCRFLHGYHRFMHSVGRVFSKWGESPNRSRR",doubling time of Jak-STAT3 dependent proliferation,[6]; OSM stimulation,40 h

# Reference: patent US11913031B2, “Method to reproduce circadian rhythms on a microfluidic chip” (Yissum Research Development Company of the Hebrew …, priority 2017, dated 2024)
